The record followed here is patent US7196110B2, “N-substituted tricyclic 3-aminopyrazoles as inhibitors for the treatment of cell proliferative disorders” (Janssen Phamaceutica N.V., priority 2002, dated 2007).

In assay [1] the target is T1, PDGF-receptor beta enzyme comprising the tyrosine kinase domain (Homo sapiens, UniProt P09619).
T1 construct: from amino acid 545 to 1106 of GenBank Access NO: AAA36427
Nature of the assay: Inhibition of PDGF-receptor kinase activity (cell-free, PLC1 peptide, 33P Flashplate). In kind it is biochemical. As to conditions: PDGF-R kinase activity; for inhibition at 10 µM: compound at 10 uM, read-out: Percent Inhibition @ 10 uM; for IC50: read-out: IC50. A digest of the protocol: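 The IC50 is the inhibitor level halving kinase activity relative to inhibitor-free wells, measured as 33P captured on a streptavidin-bound biotin-PLC1 peptide. The reaction ran 60 min at 30 °C in pH 8 Tris buffer with 1 mM DTT, 5 μM ATP and the 545–1106 kinase-domain enzyme.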

For the next assay, the target named is c-Abl kinase (Abelson murine leukemia virus, UniProt P00521). The assay can be described thus: Inhibition of c-Abl kinase activity (cell-free, Abl peptide substrate, 33P Flashplate). In kind it is biochemical. As to conditions: IC50 for the c-Abl kinase activity.
Sequence of c-Abl kinase (P00521 115-385): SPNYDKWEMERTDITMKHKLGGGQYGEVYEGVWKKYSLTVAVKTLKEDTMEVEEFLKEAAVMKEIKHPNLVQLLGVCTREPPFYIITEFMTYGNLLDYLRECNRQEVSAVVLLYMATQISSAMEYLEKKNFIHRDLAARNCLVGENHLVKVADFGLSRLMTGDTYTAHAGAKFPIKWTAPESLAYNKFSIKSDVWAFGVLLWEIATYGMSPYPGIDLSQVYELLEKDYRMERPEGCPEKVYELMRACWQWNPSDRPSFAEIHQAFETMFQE

T1 sequence (P09619 545-1106): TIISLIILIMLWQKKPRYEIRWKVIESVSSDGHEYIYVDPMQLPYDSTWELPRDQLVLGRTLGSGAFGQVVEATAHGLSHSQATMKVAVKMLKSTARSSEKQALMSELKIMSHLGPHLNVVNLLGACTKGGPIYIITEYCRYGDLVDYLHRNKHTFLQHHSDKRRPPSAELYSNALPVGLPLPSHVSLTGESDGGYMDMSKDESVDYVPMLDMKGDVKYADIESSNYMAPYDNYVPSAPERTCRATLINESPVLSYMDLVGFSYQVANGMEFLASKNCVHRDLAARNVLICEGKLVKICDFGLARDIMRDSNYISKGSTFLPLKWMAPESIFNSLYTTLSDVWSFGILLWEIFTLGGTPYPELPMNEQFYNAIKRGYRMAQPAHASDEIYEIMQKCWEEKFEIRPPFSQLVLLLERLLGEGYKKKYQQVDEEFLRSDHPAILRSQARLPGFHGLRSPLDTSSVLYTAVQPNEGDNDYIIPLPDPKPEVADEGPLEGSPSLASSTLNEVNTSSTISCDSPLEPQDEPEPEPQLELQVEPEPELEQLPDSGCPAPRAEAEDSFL

By inhibition is commonly meant the relative decrease from the control value, in per cent. As a reminder, the IC50 is the point on the concentration scale where inhibition reaches its midpoint. Take `CCOc1cc2c(cc1OCC(O)CN1CCCC1)-c1n[nH]c(Nc3cccnc3)c1C2` (centres unmarked) [Compound 461, 1-[6-Ethoxy-3-(pyridin-3-ylamino)-2,4-dihydro-indeno[1,2-c]pyrazol-7-yloxy]-3-pyrrolidin-1-yl-propan-2-ol]: in assay [1], the inhibition at 10 µM came out at 97.5% and the IC50 was 0.00755 µM. Besides, the IC50 on c-Abl kinase was 0.337 µM.

Take `COc1cc2c(cc1OC)-c1n[nH]c(Nc3cccc(C(N)=O)c3)c1C2` [Compound 116, 3-(6,7-Dimethoxy-2,4-dihydro-indeno[1,2-c]pyrazol-3-ylamino)-benzamide]: in assay [1], the inhibition at 10 µM worked out at 96% and the IC50 is 0.0053 µM. In addition, the IC50 on c-Abl kinase was 0.386 µM.

Consider `COc1cccc2c1Cc1c-2n[nH]c1Nc1cccc(F)c1` [Compound 422, (3-Fluoro-phenyl)-(5-methoxy-2,4-dihydro-indeno[1,2-c]pyrazol-3-yl)-amine], for which, in assay [1], the inhibition at 10 µM stood at 83% and the half-maximal inhibitory concentration (IC50) was 0.0297 µM. Further, the IC50 on c-Abl kinase came out at 3.08 µM.

Take `COc1cc2c(cc1OCC(O)CO)Cc1c-2n[nH]c1Nc1ccc(F)c(Cl)c1` (centres unmarked) [Compound 261, 3-[3-(3-Chloro-4-fluoro-phenylamino)-7-methoxy-2,4-dihydro-indeno[1,2-c]pyrazol-6-yloxy]-propane-1,2-diol]: in assay [1], the inhibition at 10 µM stood at 71% and the IC50 was found to be 0.01 µM. Moreover, the IC50 on c-Abl kinase stood at 0.064 µM.

`OCCCOc1cc2c(cc1OCCCO)-c1n[nH]c(Nc3cccc(F)c3)c1C2` [Compound 398, 3-[3-(3-Fluoro-phenylamino)-6-(3-hydroxy-propoxy)-2,4-dihydro-indeno[1,2-c]pyrazol-7-yloxy]-propan-1-ol]: in assay [1], the inhibition at 10 µM is 96% and the IC50 was 0.00682 µM. Also, the IC50 at c-Abl kinase was determined as 0.01 µM.

For `COc1cccc(Nc2[nH]nc3c2Cc2cc(OC)c(OC)cc2-3)c1` [Compound 29, (6,7-Dimethoxy-2,4-dihydro-indeno[1,2-c]pyrazol-3-yl)-(3-methoxy-phenyl)-amine], the inhibition at 10 µM in assay [1] amounted to 99%. Besides, at c-Abl kinase, the IC50 worked out at 0.005 µM.

On to `COCCCOc1cc2c(cc1OCCCOC)-c1n[nH]c(Nc3cccnc3)c1C2` [Compound 286, [6,7-Bis-(3-methoxy-propoxy)-2,4-dihydro-indeno[1,2-c]pyrazol-3-yl]-pyridin-3-yl-amine], for which, in assay [1], the inhibition at 10 µM worked out at 95.5% and the IC50 turned out to be 0.0162 µM. For the same molecule, the concentration for half-maximal inhibition (IC50) at c-Abl kinase came to 2.95 µM.

For `Fc1ccc(Nc2[nH]nc3c2Cc2cc(F)ccc2-3)cc1` [Compound 201, (6-Fluoro-2,4-dihydro-indeno[1,2-c]pyrazol-3-yl)-(4-fluoro-phenyl)-amine], in assay [1], the inhibition at 10 µM was found to be 96% and the IC50 amounted to 0.009 µM. For the same molecule, at c-Abl kinase, the IC50 came out at 0.217 µM.

Regarding `COc1cc2c(cc1F)Cc1c-2n[nH]c1Nc1cccc(Br)c1` [Compound 358, (3-Bromo-phenyl)-(6-fluoro-7-methoxy-2,4-dihydro-indeno[1,2-c]pyrazol-3-yl)-amine], the inhibition at 10 µM in assay [1] was determined as 92%. The IC50 worked out at 0.00877 µM in assay [1] and 0.338 µM at c-Abl kinase.

Consider `COc1cccc(Nc2[nH]nc3c2Cc2cc(OCC(O)CO)c(OC)cc2-3)c1` (centres unmarked) [Compound 260, 3-[7-Methoxy-3-(3-methoxy-phenylamino)-2,4-dihydro-indeno[1,2-c]pyrazol-6-yloxy]-propane-1,2-diol], for which, in assay [1], the inhibition at 10 µM was determined as 91% and the IC50 stood at 0.0015 µM. The IC50 on c-Abl kinase is 0.013 µM.

For the molecule `COc1cc2c(cc1OCC(O)CN1CCCC1)Cc1c-2n[nH]c1Nc1cccnc1` (centres unmarked) [Compound 281, 1-[7-Methoxy-3-(pyridin-3-ylamino)-2,4-dihydro-indeno[1,2-c]pyrazol-6-yloxy]-3-pyrrolidin-1-yl-propan-2-ol], in assay [1], the inhibition at 10 µM came out at 67% and the IC50 was 0.0026 µM. At c-Abl kinase, the IC50 was found to be 1.58 µM.

Regarding `COc1cc2c(cc1OC)-c1n[nH]c(Nc3cccc(CO)c3)c1C2` [Compound 36, [3-(6,7-Dimethoxy-2,4-dihydro-indeno[1,2-c]pyrazol-3-ylamino)-phenyl]-methanol], in assay [1], the inhibition at 10 µM turned out to be 85% and the IC50 amounted to 0.033 µM. The IC50 at c-Abl kinase came to 0.064 µM.

Turning to `OCCCOc1cc2c(cc1OCCCO)-c1n[nH]c(Nc3cccc(Cl)c3)c1C2` [Compound 373, 3-[3-(3-Chloro-phenylamino)-7-(3-hydroxy-propoxy)-2,4-dihydro-indeno[1,2-c]pyrazol-6-yloxy]-propan-1-ol], in assay [1], the inhibition at 10 µM was determined as 100% and the IC50 is 0.00377 µM. In addition, on c-Abl kinase, the IC50 is 0.01 µM.

For the molecule `COc1cc2c(cc1OCCCO)Cc1c-2n[nH]c1NCc1ccccc1F` [Compound 386, 3-[3-(2-Fluoro-benzylamino)-7-methoxy-2,4-dihydro-indeno[1,2-c]pyrazol-6-yloxy]-propan-1-ol], in assay [1], the inhibition at 10 µM was found to be 95.5%. Besides, the IC50 in assay [1] amounted to 0.011 µM; on c-Abl kinase, 0.02 µM.

For the molecule `COc1cc2c(cc1OC)-c1n[nH]c(Nc3ccccc3)c1C2` [Compound 2, (6,7-Dimethoxy-2,4-dihydro-indeno[1,2-c]pyrazol-3-yl)-phenyl-amine], in assay [1], the inhibition at 10 µM is 91%. Further, the IC50 in assay [1] worked out at 0.006 µM; on c-Abl kinase it was 0.011 µM.

Take `CCOc1cccc(Nc2[nH]nc3c2Cc2cc(OCC)c(OCC(O)CN4CCCC4)cc2-3)c1` (centres unmarked) [Compound 463, 1-[6-Ethoxy-3-(3-ethoxy-phenylamino)-2,4-dihydro-indeno[1,2-c]pyrazol-7-yloxy]-3-pyrrolidin-1-yl-propan-2-ol]: in assay [1], the inhibition at 10 µM was 98.5% and the IC50 was 0.011 µM. In addition, the IC50 at c-Abl kinase amounted to 0.008 µM.

For the molecule `OCCCOc1cc2c(cc1OCCCO)-c1n[nH]c(Nc3ccc(F)c(Cl)c3)c1C2` [Compound 389, 3-[3-(3-Chloro-4-fluoro-phenylamino)-7-(3-hydroxy-propoxy)-2,4-dihydro-indeno[1,2-c]pyrazol-6-yloxy]-propan-1-ol], in assay [1], the inhibition at 10 µM was 98% and the IC50 stood at 0.0151 µM. Further, the IC50 on c-Abl kinase is 0.017 µM.

`CCOc1cccc(Nc2[nH]nc3c2Cc2cc(OC)c(OC)cc2-3)c1` [Compound 374, (6,7-Dimethoxy-2,4-dihydro-indeno[1,2-c]pyrazol-3-yl)-(3-ethoxy-phenyl)-amine]: in assay [1], the inhibition at 10 µM was found to be 100% and the IC50 came to 0.0141 µM. For the same molecule, on c-Abl kinase, the IC50 stood at 0.051 µM.

For the molecule `Fc1ccc2c(c1)-c1n[nH]c(Nc3ccccc3)c1C2` [Compound 299, (7-Fluoro-2,4-dihydro-indeno[1,2-c]pyrazol-3-yl)-phenyl-amine], in assay [1], the inhibition at 10 µM is 80% and the IC50 is 0.0193 µM. The half-inhibitory concentration (IC50) on c-Abl kinase was found to be 0.198 µM.

Take `COc1cccc(Nc2[nH]nc3c2Cc2cc(OCCCO)c(OC)cc2-3)c1` [Compound 266, 3-[7-Mehoxy-3-(3-methoxy-phenylamino)-2,4-dihydro-indeno[1,2-c]pyrazol-6-yloxy]-propan-1-ol]: in assay [1], the inhibition at 10 µM amounted to 110% and the IC50 was determined as 0.00153 µM. The IC50 at c-Abl kinase amounted to 0.015 µM.

With `COc1cc2c(cc1OC)-c1c(c(Nc3cccc(F)c3)nn1C(=O)COC(C)=O)C2` [Compound 467, Acetic acid 2-[3-(3-fluoro-phenylamino)-6,7-dimethoxy-4H-indeno[1,2-c]pyrazol-1-yl]-2-oxo-ethyl ester], in assay [1], the inhibition at 10 µM worked out at 96.5% and the IC50 is 0.0176 µM. Besides, the IC50 at c-Abl kinase amounted to 0.244 µM.

As for `CCOc1cc2c(cc1OCC)-c1n[nH]c(NCc3ccccc3Cl)c1C2` [Compound 292, (2-Chloro-benzyl)-(6,7-diethoxy-2,4-dihydro-indeno[1,2-c]pyrazol-3-yl)-amine], in assay [1], the inhibition at 10 µM was determined as 86.5% and the IC50 came to 0.0182 µM. The IC50 on c-Abl kinase turned out to be 0.001 µM.

On to `Nc1ccc2c(c1)Cc1c-2n[nH]c1Nc1cccc(Cl)c1` [Compound 119, N3-(3-Chloro-phenyl)-2,4-dihydro-indeno[1,2-c]pyrazole-3,6-diamine], for which, in assay [1], the inhibition at 10 µM worked out at 90% and the IC50 is 0.0198 µM. Moreover, on c-Abl kinase, the IC50 came to 0.524 µM.

On to `OCC(O)COc1cccc2c1Cc1c-2n[nH]c1Nc1cccc(F)c1` (centres unmarked) [Compound 469, 3-[3-(3-Fluoro-phenylamino)-2,4-dihydro-indeno[1,2-c]pyrazol-5-yloxy]-propane-1,2-diol], for which, in assay [1], the inhibition at 10 µM worked out at 96% and the IC50 amounted to 0.16 µM. The IC50 at c-Abl kinase was 0.027 µM.

Take `COc1cc2c(cc1OCCCN1CCOCC1)Cc1c-2n[nH]c1Nc1cccc(Br)c1` [Compound 130, (3-Bromo-phenyl)-[7-methoxy-6-(3-morpholin-4-yl-propoxy)-2,4-dihydro-indeno[1,2-c]pyrazol-3-yl]-amine]: in assay [1], the inhibition at 10 µM was determined as 94.5% and the IC50 came out at 0.00215 µM. Besides, the IC50 on c-Abl kinase was 0.236 µM.

Turning to `COc1cc2c(cc1OC)-c1n[nH]c(Nc3cc(F)cc(F)c3)c1C2` [Compound 207, (3,5-Difluoro-phenyl)-(6,7-dimethoxy-2,4-dihydro-indeno[1,2-c]pyrazol-3-yl)-amine], in assay [1], the inhibition at 10 µM worked out at 89% and the IC50 was determined as 0.01 µM. The IC50 on c-Abl kinase turned out to be 0.062 µM.

For `COc1ccc(OC)c(Nc2[nH]nc3c2Cc2cc(F)ccc2-3)c1` [Compound 203, (2,5-Dimethoxy-phenyl)-(6-fluoro-2,4-dihydro-indeno[1,2-c]pyrazol-3-yl)-amine], in assay [1], the inhibition at 10 µM worked out at 86% and the IC50 was determined as 0.016 µM. At c-Abl kinase, the IC50 came out at 0.16 µM.

As for `COc1cc2c(cc1OCC(O)CO)Cc1c-2n[nH]c1Nc1cccnc1` (centres unmarked) [Compound 263, 3-[7-Methoxy-3-(pyridn-3-ylamino)-2,4-dihydro-indeno[1,2-c]pyrazol-6-yloxy]-propane-1,2-diol], in assay [1], the inhibition at 10 µM worked out at 103% and the IC50 stood at 0.046 µM. The IC50 on c-Abl kinase worked out at 0.512 µM.
